Columns and labels:
Wild type FPR2 = conditions: cited from earlier work
Source text: IC50 values of six formylpeptides in the cAMP accumulation assays reported previously by He et al., 2014*.

FPR1 = conditions: cited from earlier work
Source text: FPR1 and FPR2 share a high 69% sequence identity, but they have distinct preferences for formylpeptides and play different roles in host defense[4],[40],[43]. […] To explore the molecular basis for the different receptor pharmacology, we generated a three-dimensional homology model of FPR1 ...

C5aR = molecular target: T1, C5aR (Homo sapiens, UniProt P21730); experiment: 35S-GTPγS binding assay, Sf9 cell membranes overexpressing C5aR with purified Gi (control); format: biochemical; conditions: increasing concentrations of WKYMVm, n = 3
T1 construct: expressed in transfected cells; host or cells: Sf9 insect cells, membranes
T1 sequence (P21730 1-350): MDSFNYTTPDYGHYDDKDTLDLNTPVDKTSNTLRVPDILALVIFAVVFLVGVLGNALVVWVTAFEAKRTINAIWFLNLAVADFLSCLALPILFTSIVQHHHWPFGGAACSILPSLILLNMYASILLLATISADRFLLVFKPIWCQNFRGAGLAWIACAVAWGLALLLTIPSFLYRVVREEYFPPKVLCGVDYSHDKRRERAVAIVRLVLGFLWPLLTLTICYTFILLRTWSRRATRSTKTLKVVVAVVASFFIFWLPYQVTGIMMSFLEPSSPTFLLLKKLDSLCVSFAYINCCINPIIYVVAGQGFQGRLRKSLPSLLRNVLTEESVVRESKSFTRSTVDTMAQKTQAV
Description: To form receptor-Gi complex, ~250 μg/ml of membrane of Sf9 cells overexpressing FPR2 or C5aR (for Fig. 1a) or membrane of HEK-293 cells transiently expressing FPR2 and mutants was incubated with 200 nM purified Gi protein for 25 minutes at 4°C in buffer containing 20 mM HEPES pH 7.5, 100 mM NaCl, 5 mM MgCl2, 5 μM GDP, 0.1 μM TCEP, and 3 μg/ml BSA. […] After 10–15 min reaction at 25 °C, 4 ml of cold wash buffer containing 20 mM HEPES pH 7.5, 100 mM NaCl and 5 mM MgCl2 was added to terminate the reaction, and the membranes was collected by filtering through glass fiber prefilters (Millipore Sigma). After four times additional wash, the filters were incubated with 5 ml of CytoScint liquid scintillation cocktail (MP Biomedicals) and counted in a Beckman LS6500 scintillation counter to determine the receptor activation induced binding of ^35S-GTPγS to Gi. The data were analyzed by GraphPad Prism 6 (GraphPad Software). Results are presented as mean ± s.e.m. from three independent experiments.

FPR2 R201A [1] = molecular target: T2, FPR2 R201A (Homo sapiens, UniProt P25090, R201A); experiment: BRET assay of Gi coupling to FPR2-Rluc8, permeabilized HEK-293 cells, R201A; format: cell-based; parameters: expressed in transfected cells; host or cells: HEK-293 cells (ATCC), transient, digitonin-permeabilized
Description: (§1) HEK-293 cells (ATCC, Manassas, VA, USA) were propagated in plastic flasks and on 6-well plates according to the supplier’s protocol. To measure Gi coupling to FPR2, cells were transiently transfected with an FPR2-Rluc8 receptor (wt or mutant) and Gαi1, Venus-1-155-Gγ2 and Venus-155-239-Gβ1 using linear polyethyleneimine MAX (PEI MAX; MW 40,000) at an N/P ratio of 20 and were used for experiments 48 h later. Up to 3.0 μg of plasmid DNA was transfected in each well of a 6-well plate. To measure BRET signals, cells were washed twice with permeabilization buffer (KPS) containing 140 mM KCl, 10 mM NaCl, 1 mM MgCl2, 0.1 mM KEGTA, 20 mM NaHEPES (pH 7.2), harvested by trituration, permeabilized in KPS buffer containing 10 μg ml^−1 high purity digitonin, and transferred to opaque black 96-well plates containing diluted ligands and 2U ml^−1 apyrase. After addition of coelenterazine h (5 µM; Nanolight, Pinetop, AZ, USA), steady-state BRET measurements were made using a Mithras LB940 photon-counting plate reader (Berthold Technologies GmbH, Bad Wildbad, Germany). Raw BRET signals were calculated as the emission intensity at 520–545 nm divided by the emission intensity at 475–495 nm. The data were analyzed in Prism (GraphPad) by using ‘log(agonist) vs normalized response- variable slope (four parameters)’ of dose-response stimulation.
Target sequence in this assay (P25090 whole entry R201A): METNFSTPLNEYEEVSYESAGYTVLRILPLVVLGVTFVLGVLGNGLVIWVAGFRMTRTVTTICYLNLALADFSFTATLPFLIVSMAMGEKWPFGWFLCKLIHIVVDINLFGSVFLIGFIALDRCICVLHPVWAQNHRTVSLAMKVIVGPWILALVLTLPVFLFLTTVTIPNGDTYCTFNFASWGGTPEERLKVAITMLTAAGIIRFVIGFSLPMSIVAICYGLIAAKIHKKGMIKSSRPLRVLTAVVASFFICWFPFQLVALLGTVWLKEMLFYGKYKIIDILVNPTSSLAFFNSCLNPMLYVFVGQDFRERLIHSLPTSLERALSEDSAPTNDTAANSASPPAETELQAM
Target sequence in this assay (P63096 whole entry partner): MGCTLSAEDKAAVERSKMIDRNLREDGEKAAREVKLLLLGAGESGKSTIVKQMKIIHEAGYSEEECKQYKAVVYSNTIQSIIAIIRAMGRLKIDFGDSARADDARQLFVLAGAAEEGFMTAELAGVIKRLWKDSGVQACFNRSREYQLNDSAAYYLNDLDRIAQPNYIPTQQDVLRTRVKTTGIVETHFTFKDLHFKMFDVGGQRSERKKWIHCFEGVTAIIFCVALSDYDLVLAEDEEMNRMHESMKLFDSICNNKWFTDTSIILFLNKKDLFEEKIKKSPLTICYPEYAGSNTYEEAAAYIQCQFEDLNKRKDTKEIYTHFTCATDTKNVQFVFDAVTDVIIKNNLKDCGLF
Target sequence in this assay (P59768 whole entry partner): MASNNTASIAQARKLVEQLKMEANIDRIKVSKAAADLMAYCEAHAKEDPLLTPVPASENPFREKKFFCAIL
Target sequence in this assay (P62873 whole entry partner): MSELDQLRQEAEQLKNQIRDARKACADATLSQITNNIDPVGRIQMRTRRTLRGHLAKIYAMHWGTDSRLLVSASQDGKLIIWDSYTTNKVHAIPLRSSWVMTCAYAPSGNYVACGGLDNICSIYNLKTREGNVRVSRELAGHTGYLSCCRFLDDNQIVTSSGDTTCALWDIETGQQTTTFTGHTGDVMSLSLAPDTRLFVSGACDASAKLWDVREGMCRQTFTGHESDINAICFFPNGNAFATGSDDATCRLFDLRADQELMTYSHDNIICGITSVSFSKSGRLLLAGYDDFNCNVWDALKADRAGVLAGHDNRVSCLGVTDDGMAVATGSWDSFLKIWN

FPR2 R205A [2] = molecular target: T3, FPR2 R205A (Homo sapiens, UniProt P25090, R205A); experiment: 35S-GTPγS binding assay, HEK-293 cell membranes with purified Gi, FPR2 R205A; format: biochemical; parameters: FLAG; expressed in transfected cells; host or cells: HEK-293 cells, transient, membranes
Target sequence in this assay (P25090 whole entry R205A): as the sequence (P25090 whole entry R201A) above, with A201R, R205A counted along it
Target sequence in this assay (P63096 whole entry partner): as the sequence (P63096 whole entry partner) above
Target sequence in this assay (P54311 whole entry partner): as the sequence (P62873 whole entry partner) above
Target sequence in this assay (P63212 2-68 partner limits assumed): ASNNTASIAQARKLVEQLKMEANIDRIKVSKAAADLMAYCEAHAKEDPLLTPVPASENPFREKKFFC

FPR2 R205A [3] = molecular target: T3, FPR2 R205A; experiment: BRET assay of Gi coupling to FPR2-Rluc8, permeabilized HEK-293 cells, R205A; format: cell-based; parameters: expressed in transfected cells; host or cells: HEK-293 cells (ATCC), transient, digitonin-permeabilized
Description: as §1
Target sequence in this assay (P25090 whole entry R205A): as the sequence (P25090 whole entry R201A) above, with A201R, R205A counted along it
Target sequence in this assay (P63096 whole entry partner): as the sequence (P63096 whole entry partner) above
Target sequence in this assay (P59768 whole entry partner): as the sequence (P59768 whole entry partner) above
Target sequence in this assay (P62873 whole entry partner): as the sequence (P62873 whole entry partner) above

[4] = Aggregation of the ligand in assay buffer (authors' reply to reviewer); format: physicochemical; conditions: peptide with a high hydrophobicity; authors' statement in rebuttal, no data shown
FPR2 R201A [5] = molecular target: T2, FPR2 R201A; experiment: 35S-GTPγS binding assay, HEK-293 cell membranes with purified Gi, FPR2 R201A; format: biochemical; parameters: FLAG; expressed in transfected cells; host or cells: HEK-293 cells, transient, membranes
Target sequence in this assay (P25090 whole entry R201A): as the sequence (P25090 whole entry R201A) above
Target sequence in this assay (P63096 whole entry partner): as the sequence (P63096 whole entry partner) above
Target sequence in this assay (P54311 whole entry partner): as the sequence (P62873 whole entry partner) above
Target sequence in this assay (P63212 2-68 partner limits assumed): as the sequence (P63212 2-68 partner limits assumed) above

## fMLFK
Wild type FPR2
  fold higher potency in activating FPR2 than fMLFE: 500–5000 fold

## fMLF
FPR1
  fold more potent in activating FPR1 than activating FPR2: ~ 1000 fold

## Trp-Lys-Tyr-Met-Val-d-Met-NH2 [WKYMVm, synthetic peptide agonist of FPR2]
FPR1
  potency for FPR1 compared with FPR2: lower potency
C5aR
  WKYMVm-induced Gi activation with C5aR (control): didn’t induce Gi activation

## fMLFII [short formylpeptide]
FPR2 R201A [1]
  fMLFII-induced Gi coupling, R201A mutant versus wt: dramatic decrease
FPR2 R205A [2]
  fMLFII-induced FPR2 activation, R205A mutant versus wt: dramatic decrease
FPR2 R205A [3]
  fMLFII-induced Gi coupling, R205A mutant versus wt: dramatic decrease
[4]
  concentration above which fractions of aggregation could occur: above 10 µM
FPR2 R201A [5]
  fMLFII-induced FPR2 activation, R201A mutant versus wt: dramatic decrease

— PMC7021761 (Nature Communications, 2020)
